Data as given in US6809091B1, “Substances capable of inducing apoptosis” (Takara Bio Inc., priority 1998, dated 2004).

What was measured:
[1] = test system: mice; assay: acute toxicity, single oral administration; type: in vivo; details: single oral administration of 100 mg/kg
Experimental: When a physiologically active effective dose of the heat-treated product of the present invention and partially purified product thereof and the compound of the present invention are/is administered to mice, no acute toxicity is noted.

[2] = test system: hepatoblastoma HepG2 cells; assay: cell growth of HepG2 cells, Premix WST-1; type: cell-based, human
Experimental: HepG2 cells (ACTT HB-8065) which were the cell strains established from the patients suffering from primary hepatoblastoma were suspended in a DMEM medium (manufactured by Gibco) containing 10% of FBS (manufactured by BioWhittaker) to an extent of 3.8×10^3 cells/ml, each 200 μl of the suspension were placed in each well of a 96-well microtiter plate and incubated at 37° C. in the presence of 5% carbon dioxide gas until the cells saturated in an incubator, the medium was exchanged, then 4-hydroxy-2-cyclopenten-1-one or […], the mixture was incubated for 24, 48 or 72 hours, 10 μl of Premix WST-1 (MK 400; manufactured by Takara Shuzo) were added thereto, the mixture was made to react at 37° C. for three hours and the value (A450-650) obtained by subtracting the absorbance at 650 nm (A650) from that at 450 nm (A450) was defined as a degree of cell growth.

[3] = test system: heat shock protein of 70 kDa in HL-60; assay: induction of heat shock protein of 70 kDa, SDS-PAGE and blotting; type: cell-based, human; design: key: “−” means no induction; “±” means a little induction; “+” shows the intensity of induction and the more the “+”, the more the induction; ++: “+” shows the intensity of induction and the more the “+”, the more the induction; +++: “+” shows the intensity of induction and the more the “+”, the more the induction; details: six hours
Experimental: Each 5 ml of an RPMI 1640 medium containing 10% of FBS containing 2×10^5 cells/ml of HL-60 (ATCC CCL-240) were placed in each well of a six-well plate, incubated at 37° C. for 24 hours in the presence of 5% CO2, then 4,5-dihydroxy-2-pentenal was added to make the final concentration 0, 12.5, 25, 50 or 100 μM or 4-hydroxy-2-cyclopenten-1-one was added to make the final concentration 0, 2.5, 5, 10, 20, 40 or 80 μM and the mixture was incubated for six hours more.
After completion of the incubation, cell numbers were counted and then the cells were recovered by centrifugation and washed with PBS to prepare the cells treated with each of the samples. In addition, cells which were heated at 45° C. for five minutes followed by subjecting to the same incubation were prepared as well.
The cells treated as such were then subjected to an SDS-PAGE according to a method mentioned in “Molecular Cloning” (Cold Spring Harbor Laboratory Press, 1989). Thus, the cells were suspended in an SDS-PAGE sample buffer to make the concentration 2.5×10^6 cells/ml, the resulting cell suspension was treated at 100° C. for ten minutes, each 5 μl thereof were applied to two sheets of SDS-PAGE gel (a 5% stacking gel and a 10% separation gel) and an electrophoresis was carried out. One of the gels was stained with Coomassie while another was subjected to a blotting to polyvinylidene difluoride transfer membrane (Immobilon™ manufactured by MILLIPORE; catalog no. IPVH000-10). This membrane was subjected to a blocking overnight at 4° C. using Block Ace (manufactured by Dainippon Pharmaceutical; catalog no. UK-B25).
The membrane which was subjected to a blocking as such was made to react with monoclonal antibody HSP 72/73 (Ab-1) (manufactured by Oncogene Research Products; catalog no. HSP01) which specifically reacted with heat-induced heat shock protein of 70 kDa, washed with TBS containing 0.05% Tween 20 and further washed with TBS. After that, it was made to react with peroxidase-compounded secondary antibody HRP-Rabbit Anti Mouse IgG (H+L) (manufactured by ZYMED Laboratories; catalog no. 61-6520) and washed as same as in the previous operation. The membrane which was made to react with the primary antibody and the secondary antibody as such was made to react with RENAISSANCE™ (a chemiluminol reagent manufactured by Dupont NEN, catalog no. NEL-100) and then exposed to X-ray film to confirm the induction of the heat shock protein of 70 kDa.

[4] = test system: RAW 264.7 cells; assay: cell growth in the NO production test; type: cell-based; details: final concentration of 10 μM
[5] = test system: NO production in RAW 264.7 cells; assay: inhibition of NO production, NO2− by Griess reagent; type: cell-based
Experimental: (1) RAW 264.7 cells (ATCC TIB 71) were suspended to an extent of 3×10^5 cells/ml in an Eagle's medium modified by Dulbecco (manufactured by BioWhittaker; 12-917F) containing 10% fetal bovine serum (manufactured by Gibco), no Phenol Red and 2 mM of L-glutamine (manufactured by Lifetech Oriental; 25030-149) and each 500 μl of the suspension were added to each well of a 48-well microtiter plate and incubated at 37° C. for 12 hours in the presence of 5% carbon dioxide gas. To the well were added 10 μl of a 50 μg/ml lipopolysaccharide (LPS; manufactured by Sigma, L-2012) or each 10 μl of a 2.5 μg/ml of LPS and a 500 units/ml of interferon γ (manufactured by Genzyme; code MG-IFN), then 10 μl of a 1000, 500 or 250 μM aqueous solution of 2-(trans-3,4-dihydroxy-1-butenyl)-4-(trans-2-formylvinyl)-1,3-dioxolane were added, the mixture was incubated for 18 hours more and the NO2^− concentration generated by oxidation of NO in the medium was measured. Incidentally, a section to which LPS and interferon γ were not added and a section to which 2-(trans-3,4-dihydroxy-1-butenyl)-4-(trans-2-formylvinyl)-1,3-dioxolane was not added were prepared as controls.
After the above incubation, 100 μl of a 4% Griess reagent (manufactured by Sigma; G4410) were added to 100 μl of the medium, the mixture was allowed to stand at room temperature for 15 minutes and the absorbance at 490 nm was measured. From a calibration curve prepared by NaNO2 of known concentrations dissolved in the above medium, the NO2^− concentration in the medium was calculated. All measurements were conducted in three series.

SMILES | death [1] | Degree of Cell Growth ([2]; 25 μM, 24 hours) [A450-650] | Degree of Cell Growth ([2]; 25 μM, 48 hours) [A450-650] | Degree of Cell Growth ([2]; 25 μM, 72 hours) [A450-650] | Degree of Cell Growth ([2]; 50 μM, 24 hours) [A450-650] | Degree of Cell Growth ([2]; 50 μM, 48 hours) [A450-650] | Degree of Cell Growth ([2]; 50 μM, 72 hours) [A450-650] | Degree of Cell Growth ([2]; 100 μM, 24 hours) [A450-650] | Degree of Cell Growth ([2]; 100 μM, 48 hours) [A450-650] | Degree of Cell Growth ([2]; 100 μM, 72 hours) [A450-650] | Degree of Cell Growth ([2]; 150 μM, 24 hours) [A450-650] | Degree of Cell Growth ([2]; 150 μM, 48 hours) [A450-650] | Degree of Cell Growth ([2]; 150 μM, 72 hours) [A450-650] | other results
O=C1C=CC(O)C1 (stereo not shown) [4-hydroxy-2-cyclopenten-1-one] | no case of death | 1.30 | 0.70 | 0.49 | 1.38 | 0.81 | 0.47 | 1.31 | 0.56 | 0.35 | 1.23 | 0.43 | 0.30 | intensity of induction of heat shock protein of 70 kDa ([3]; HL-60, 5 μM): ±; intensity of induction of heat shock protein of 70 kDa ([3]; HL-60, 20 μM): +++; intensity of induction of heat shock protein of 70 kDa ([3]; HL-60, 40 μM): ++; intensity of induction of heat shock protein of 70 kDa ([3]; HL-60, 80 μM): ±
O=CC=CC(O)CO (single isomer, unassigned) [4,5-dihydroxy-2-pentenal, trans-4,5-dihydroxy-2-pentenal] | no case of death | 3.39 | 2.69 | 1.70 | 1.97 | 2.96 | 1.70 | 1.81 | 2.70 | 0.89 | 1.40 | 0.79 | 0.35 | intensity of induction of heat shock protein of 70 kDa ([3]; HL-60, 25 μM): ±; intensity of induction of heat shock protein of 70 kDa ([3]; HL-60, 50 μM): +++; intensity of induction of heat shock protein of 70 kDa ([3]; HL-60, 100 μM): −
O=C/C=C/C1COC(/C=C/C(O)CO)O1 (stereo not drawn) [2-(trans-3,4-dihydroxy-1-butenyl)-4-(trans-2-formylvinyl)-1,3-dioxolane] |  |  |  |  |  |  |  |  |  |  |  |  |  | inhibition of cell growth [4]: no inhibition of cell growth was noted at all; induction of NO production by LPS ([5]; 18 hours): inhibited; induction of NO production by LPS and interferon γ ([5]; 18 hours): inhibited; inhibition at 10 µM ([5]; Mus musculus, RAW264.7, final concentration of 10 μM, read-out: inhibiting activity for NO production): ~50%
